# Results as given in US10238670B2, “9-aminomethyl minocycline compounds and methods of use thereof in urinary tract infection (UTI) treatment” (Paratek Pharmaceuticals, Inc., priority 2016, dated 2019).
# Legend:
# Test in all cases: In vitro MIC, 2010 surveillance isolates
# E. faecalis VS = assay type: cell-based; conditions: N America
# A. baumanii = assay type: cell-based
# E. cloacae CeftazS = assay type: cell-based
# E. cloacae CeftazR = assay type: cell-based
# E. faecium VNS = assay type: cell-based; conditions: for % R (resistance): CLSI breakpoints
# E. faecium VS = assay type: cell-based; conditions: for % R (resistance): CLSI breakpoints
# Acinetobacter spp = assay type: cell-based
# E. coli ESBL− = assay type: cell-based, Escherichia coli
# K. pneumoniae ESBL+ = assay type: cell-based, Klebsiella pneumoniae
# MR CoNS = assay type: cell-based, Coagulase-Negative Staphylococcus
smiles,measurement,setting,value
C[C@H]1COc2c(N3CCN(C)CC3)c(F)cc3c(=O)c(C(=O)O)cn1c23 [Levofloxacin],% R (resistance),E. faecalis VS; CLSI breakpoints,29.3%
same,MIC90,E. faecalis VS; N=863,> 4 µg/mL
same,% R (resistance),"A. baumanii; Asia/Pac, Eucast breakpoints",79.3%
same,MIC90,"A. baumanii; Asia/Pac, N=275",> 4 µg/mL
same,% R (resistance),"A. baumanii; Europe, Eucast breakpoints",74.5%
same,MIC90,"A. baumanii; Europe, N=145",> 4 µg/mL
same,% R (resistance),"A. baumanii; L. Amer, CLSI breakpoints",86.9%
same,MIC90,"A. baumanii; L. Amer, N=275",> 4 µg/mL
same,% R (resistance),"A. baumanii; N America, CLSI breakpoints",68.8%
same,MIC90,"A. baumanii; N America, N=154",> 4 µg/mL
same,% R (resistance),"E. cloacae CeftazS; Asia/Pac, Eucast breakpoints",4%
same,MIC90,"E. cloacae CeftazS; Asia/Pac, N=100",≤ 0.5 µg/mL
same,% R (resistance),"E. cloacae CeftazS; Europe, Eucast breakpoints",2.2%
same,MIC90,"E. cloacae CeftazS; Europe, N=183",≤ 0.5 µg/mL
same,% R (resistance),"E. cloacae CeftazS; L. Amer, CLSI breakpoints",12.3%
same,MIC90,"E. cloacae CeftazS; L. Amer, N=57",> 4 µg/mL
same,% R (resistance),"E. cloacae CeftazS; N America, CLSI breakpoints",2.9%
same,MIC90,"E. cloacae CeftazS; N America, N=210",≤ 0.5 µg/mL
same,% R (resistance),"E. cloacae CeftazR; Asia/Pac, Eucast breakpoints",20.6%
same,MIC90,"E. cloacae CeftazR; Asia/Pac, N=63",> 4 µg/mL
same,% R (resistance),"E. cloacae CeftazR; Europe, Eucast breakpoints",22.2%
same,MIC90,"E. cloacae CeftazR; Europe, N=72",> 4 µg/mL
same,% R (resistance),"E. cloacae CeftazR; L. Amer, CLSI breakpoints",31%
same,MIC90,"E. cloacae CeftazR; L. Amer, N=42",> 4 µg/mL
same,% R (resistance),"E. cloacae CeftazR; N America, CLSI breakpoints",19.5%
same,MIC90,"E. cloacae CeftazR; N America, N=77",> 4 µg/mL
same,MIC90,"E. faecium VNS; Asia/Pac, N=24",> 4 µg/mL
same,MIC90,"E. faecium VNS; Europe, N=71",> 4 µg/mL
same,% R (resistance),E. faecium VNS; L. Amer,100%
same,MIC90,"E. faecium VNS; L. Amer, N=41",> 4 µg/mL
same,% R (resistance),E. faecium VNS; N America,99.6%
same,MIC90,"E. faecium VNS; N America, N=478",> 4 µg/mL
same,MIC90,"E. faecium VS; Asia/Pac, N=106",> 4 µg/mL
same,MIC90,"E. faecium VS; Europe, N=303",> 4 µg/mL
same,% R (resistance),E. faecium VS; L. Amer,78.4%
same,MIC90,"E. faecium VS; L. Amer, N=51",> 4 µg/mL
same,% R (resistance),E. faecium VS; N America,68.7%
same,MIC90,"E. faecium VS; N America, N=115",> 4 µg/mL
same,% R (resistance),"Acinetobacter spp; Asia/Pac, Eucast breakpoints",11.1%
same,% R (resistance),"Acinetobacter spp; Europe, Eucast breakpoints",41.9%
same,MIC90,"Acinetobacter spp; Europe, N=43",> 4 µg/mL
same,% R (resistance),"Acinetobacter spp; L. Amer, CLSI breakpoints",33.3%
same,% R (resistance),"Acinetobacter spp; N America, CLSI breakpoints",14.3%
same,MIC90,"Acinetobacter spp; N America, N=42",> 4 µg/mL
same,% R (resistance),"E. coli ESBL−; Asia/Pac, Eucast breakpoints",17%
same,MIC90,"E. coli ESBL−; Asia/Pac, N=282",> 4 µg/mL
same,% R (resistance),"E. coli ESBL−; Europe, Eucast breakpoints",19.3%
same,MIC90,"E. coli ESBL−; Europe, N=1533",> 4 µg/mL
same,% R (resistance),"E. coli ESBL−; L. Amer, CLSI breakpoints",22.9%
same,MIC90,"E. coli ESBL−; L. Amer, N=389",> 4 µg/mL
same,% R (resistance),"E. coli ESBL−; N America, CLSI breakpoints",21.9%
same,MIC90,"E. coli ESBL−; N America, N=1172",> 4 µg/mL
same,% R (resistance),"K. pneumoniae ESBL+; Asia/Pac, Eucast breakpoints",61.3%
same,MIC90,"K. pneumoniae ESBL+; Asia/Pac, N=124",> 4 µg/mL
same,% R (resistance),"K. pneumoniae ESBL+; Europe, Eucast breakpoints",66.9%
same,MIC90,"K. pneumoniae ESBL+; Europe, N=151",> 4 µg/mL
same,% R (resistance),"K. pneumoniae ESBL+; L. Amer, CLSI breakpoints",67.9%
same,MIC90,"K. pneumoniae ESBL+; L. Amer, N=209",> 4 µg/mL
same,% R (resistance),"K. pneumoniae ESBL+; N America, CLSI breakpoints",75%
same,MIC90,"K. pneumoniae ESBL+; N America, N=108",> 4 µg/mL
same,% R (resistance),"MR CoNS; Asia/Pac, Eucast breakpoints",55.8%
same,MIC90,"MR CoNS; Asia/Pac, N=77",> 4 µg/mL
same,% R (resistance),"MR CoNS; Europe, Eucast breakpoints",64.9%
same,MIC90,"MR CoNS; Europe, N=510",> 4 µg/mL
same,% R (resistance),"MR CoNS; L. Amer, CLSI breakpoints",57.8%
same,MIC90,"MR CoNS; L. Amer, N=301",> 4 µg/mL
same,% R (resistance),"MR CoNS; N America, CLSI breakpoints",64.9%
same,MIC90,"MR CoNS; N America, N=461",> 4 µg/mL
